Common to all, as to format: cell-based
One assay deals with T1, ERα (Homo sapiens, UniProt P03372).
T1 construct: endogenous in cells; host or cells: MCF-7
T1 sequence (P03372 1-595): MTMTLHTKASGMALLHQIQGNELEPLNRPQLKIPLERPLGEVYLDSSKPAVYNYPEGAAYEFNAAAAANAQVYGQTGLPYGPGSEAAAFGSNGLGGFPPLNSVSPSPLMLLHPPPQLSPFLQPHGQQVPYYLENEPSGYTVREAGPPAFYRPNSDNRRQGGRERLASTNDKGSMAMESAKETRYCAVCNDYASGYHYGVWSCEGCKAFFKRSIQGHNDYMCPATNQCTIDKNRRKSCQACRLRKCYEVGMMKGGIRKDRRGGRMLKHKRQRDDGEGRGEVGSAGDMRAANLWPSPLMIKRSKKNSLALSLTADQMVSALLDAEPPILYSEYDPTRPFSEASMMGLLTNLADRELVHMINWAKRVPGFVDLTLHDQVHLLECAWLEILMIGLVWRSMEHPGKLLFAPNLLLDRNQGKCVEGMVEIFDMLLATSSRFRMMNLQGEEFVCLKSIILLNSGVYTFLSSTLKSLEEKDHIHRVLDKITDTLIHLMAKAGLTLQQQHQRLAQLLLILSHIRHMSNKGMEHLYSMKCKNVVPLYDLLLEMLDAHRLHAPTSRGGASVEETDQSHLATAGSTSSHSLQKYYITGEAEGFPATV
In words: ER degradation in MCF-7 cells (Western blot). Particulars: for DC50: ER degradation, 24 hours; for Dmax: MCF7, Maximal ER degradation, read-out: Dmax. The essentials:
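MCF-7 cells treated with a range of compound concentrations for 24 hours, then lysed; 50 μg protein probed for ERα by Western blot with infrared imaging. DC50 is concentration giving 50% ER reduction; Dmax is the highest percentage reduction over the range tested.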

Another assay deals with T2, ER (Homo sapiens, UniProt P03372).
T2 construct: endogenous in cells; host or cells: T47d-kb-Luc (T47D stably transfected with a luciferase reporter gene only)
T2 sequence (P03372 1-595): T1 sequence (P03372 1-595)
In words: ER antagonism (T47D ERE luciferase), T47d-kb-Luc cells. Particulars: read-out: IC50 (ER antagonistm). The essentials:
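Stably transfected T47d-kb-Luc human breast cancer cells were used, and antagonism was measured as inhibition of estradiol-driven activity. Data were normalised to the estradiol control. Five concentrations were tested in quadruplicate across at least three experiments.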

Assay [1] deals with MCF-7 breast cancer cells. In words: MCF-7 proliferation / cell viability assay. Particulars: Homo sapiens, MCF7; MCF-7 proliferation with 0.1 nM 17-beta estradiol; read-out: IC50 (anti-proliferation). Summed up: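 MCF-7 cells in 5% FBS DMEM were exposed for 5 days to compound at 6 doses from 10^−10 M to 10^−5 M, with DMSO as vehicle. Viable cells were counted by Coulter counter. Survival ratio = treated/vehicle viable cell number, vehicle set to 100%.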

Consider `CC/C(=C(\c1ccc(B(O)O)cc1)c1ccc(N2CCN(CCC3CCN(c4ccc5c(c4)C(=O)N(C4CCC(=O)NC4=O)C5=O)CC3)CC2)cc1)c1ccccc1` (stereo not drawn) [Compound 65, (Z)-(4-(1-(4-(4-(2-(1-(2-(2,6-dioxopiperidin-3-yl)-1,3-dioxoisoindolin-5-yl)piperidin-4-yl)ethyl)piperazin-1-yl)phenyl)-2-phenylbut-1-en-1-yl)phenyl)boronic acid], for which, on ERα, the 50% degradation concentration (DC50) was below 0.01 µM and the greatest degradation seen (Dmax) was above 90%. Further, at ER, the IC50 is below 0.01 µM. Further, the IC50 in assay [1] fell in the range of 0.01 to 0.05 µM.

In turn, `CC/C(=C(/c1ccc(B(O)O)cc1)c1ccc(N2CCN(CCC3CCN(c4ccc5c(c4)C(=O)N(C4CCC(=O)NC4=O)C5=O)CC3)CC2)cc1)c1ccccc1` (stereo not drawn) [Compound 66, (E)-(4-(1-(4-(4-(2-(1-(2-(2,6-dioxopiperidin-3-yl)-1,3-dioxoisoindolin-5-yl)piperidin-4-yl)ethyl)piperazin-1-yl)phenyl)-2-phenylbut-1-en-1-yl)phenyl)boronic acid] displayed a 50% degradation concentration (DC50) on ERα below 0.01 µM. Besides, the Dmax at ERα is above 90%. Besides, the IC50 (at ER; in assay [1]) was 0.01 to 0.05 µM each time.

As for `CC/C(=C(\c1ccc(B(O)O)cc1)c1ccc(N2CCN(CCC3CCN(c4ccc5c(c4)CN(C4CCC(=O)NC4=O)C5=O)CC3)CC2)cc1)c1ccccc1` (stereo not drawn) [Compound 67, (Z)-(4-(1-(4-(4-(2-(1-(2-(2,6-dioxopiperidin-3-yl)-1-oxoisoindolin-5-yl)piperidin-4-yl)ethyl)piperazin-1-yl)phenyl)-2-phenylbut-1-en-1-yl)phenyl)boronic acid], on ERα, the DC50 was below 0.01 µM and the Dmax is above 90%. Besides, the IC50 at ER was below 0.01 µM. In addition, in assay [1], the IC50 was below 0.01 µM.

On ERα, `CC/C(=C(/c1ccc(B(O)O)cc1)c1ccc(N2CCN(CCC3CCN(c4ccc5c(c4)CN(C4CCC(=O)NC4=O)C5=O)CC3)CC2)cc1)c1ccccc1` (stereo not drawn) [Compound 68, (E)-(4-(1-(4-(4-(2-(1-(2-(2,6-dioxopiperidin-3-yl)-1-oxoisoindolin-5-yl)piperidin-4-yl)ethyl)piperazin-1-yl)phenyl)-2-phenylbut-1-en-1-yl)phenyl)boronic acid] showed a DC50 below 0.01 µM. Further, on ERα, the greatest degradation seen (Dmax) is above 90%. For the same molecule, the IC50 (at ER; in assay [1]) was below 0.01 µM in each case.

Turning to `CC/C(=C(/c1ccc(OCCN2CCN(CC3CCN(c4ccc5c(c4)CN([C@@H]4CCC(=O)NC4=O)C5=O)CC3)CC2)cc1)c1ccc(B(O)O)cc1)c1ccccc1` [Compound 70], the 50% degradation concentration (DC50) on ERα is below 0.01 µM. In addition, the greatest degradation seen (Dmax) at ERα is above 90%. For the same molecule, the IC50 (on ER; in assay [1]) was below 0.01 µM in each case.

On ERα, `CC/C(=C(\c1ccc(OCCN2CCN(CC3CCN(c4ccc5c(c4)CN([C@H]4CCC(=O)NC4=O)C5=O)CC3)CC2)cc1)c1ccc(B(O)O)cc1)c1ccccc1` [Compound 71] had a 50% degradation concentration (DC50) below 0.01 µM. Also, the Dmax on ERα is above 90%. Also, the IC50 (on ER; in assay [1]) was below 0.01 µM each time.

In turn, `CC/C(=C(\c1ccc(OCCN2CCN(CC3CCN(c4ccc5c(c4)CN([C@@H]4CCC(=O)NC4=O)C5=O)CC3)CC2)cc1)c1ccc(B(O)O)cc1)c1ccccc1` [Compound 72] gave a half-maximal degradation concentration (DC50) at ERα below 0.01 µM. Besides, the Dmax at ERα is above 90%. Also, the IC50 (at ER; in assay [1]) was below 0.01 µM throughout.

Consider `CC/C(=C(/c1ccc(OCCN2CCC(CN3CCN(c4ccc5c(c4)CN([C@H]4CCC(=O)NC4=O)C5=O)CC3)CC2)cc1)c1ccc(B(O)O)cc1)c1ccccc1` [Compound 73, (S,Z)-(4-(1-(4-(2-(4-((4-(2-(2,6-dioxopiperidin-3-yl)-1-oxoisoindolin-5-yl)piperazin-1-yl)methyl)piperidin-1-yl)ethoxy)phenyl)-2-phenylbut-1-en-1-yl)phenyl)boronic acid], for which, on ERα, the DC50 is below 0.01 µM and the Dmax is above 90%. Besides, at ER, the IC50 is below 0.01 µM. In assay [1], the IC50 was below 0.01 µM.

At ERα, `CC/C(=C(/c1ccc(OCCN2CCC(CN3CCN(c4ccc5c(c4)CN([C@@H]4CCC(=O)NC4=O)C5=O)CC3)CC2)cc1)c1ccc(B(O)O)cc1)c1ccccc1` [Compound 74, (R,Z)-(4-(1-(4-(2-(4-((4-(2-(2,6-dioxopiperidin-3-yl)-1-oxoisoindolin-5-yl)piperazin-1-yl)methyl)piperidin-1-yl)ethoxy)phenyl)-2-phenylbut-1-en-1-yl)phenyl)boronic acid] gave a DC50 below 0.01 µM. The Dmax on ERα was above 90%. Moreover, the IC50 (on ER; in assay [1]) was below 0.01 µM throughout.

In the case of `CC/C(=C(\c1ccc(OCCN2CCC(CN3CCN(c4ccc5c(c4)CN([C@H]4CCC(=O)NC4=O)C5=O)CC3)CC2)cc1)c1ccc(B(O)O)cc1)c1ccccc1` [Compound 75, (S,E)-(4-(1-(4-(2-(4-((4-(2-(2,6-dioxopiperidin-3-yl)-1-oxoisoindolin-5-yl)piperazin-1-yl)methyl)piperidin-1-yl)ethoxy)phenyl)-2-phenylbut-1-en-1-yl)phenyl)boronic acid], the half-maximal degradation concentration (DC50) at ERα is below 0.01 µM. In addition, the Dmax on ERα was above 90%. Moreover, the IC50 (on ER; in assay [1]) was below 0.01 µM throughout.

With `CC/C(=C(\c1ccc(OCCN2CCC(CN3CCN(c4ccc5c(c4)CN([C@@H]4CCC(=O)NC4=O)C5=O)CC3)CC2)cc1)c1ccc(B(O)O)cc1)c1ccccc1` [Compound 76], on ERα, the DC50 is below 0.01 µM and the Dmax was above 90%. Also, at ER, the IC50 is below 0.01 µM. In addition, the IC50 in assay [1] is below 0.01 µM.

Turning to `CC/C(=C(\c1ccc(O)cc1)c1ccc(OCCN2CCN(C(=O)N3CCN(c4ccc5c(c4)CN(C4CCC(=O)NC4=O)C5=O)CC3)CC2)cc1)c1ccccc1` (stereo not drawn) [Compound 77], on ERα, the half-maximal degradation concentration (DC50) is below 0.01 µM and the Dmax is above 90%. Moreover, the IC50 on ER is below 0.01 µM. In addition, in assay [1], the IC50 was below 0.01 µM.

Consider `CC/C(=C(\c1ccc(O)cc1)c1ccc(OCCN2CCN(C(=O)N3CCN(c4ccc5c(c4)CN([C@H]4CCC(=O)NC4=O)C5=O)CC3)CC2)cc1)c1ccccc1` [Compound 78, (S,Z)-3-(5-(4-(4-(2-(4-(1-(4-hydroxyphenyl)-2-phenylbut-1-en-1-yl)phenoxy)ethyl)piperazine-1-carbonyl)piperazin-1-yl)-1-oxoisoindolin-2-yl)piperidine-2,6-dione], for which, on ERα, the DC50 was below 0.01 µM and the Dmax was above 90%. On ER, the IC50 was below 0.01 µM. For the same molecule, the IC50 in assay [1] is below 0.01 µM.

In the case of `CC/C(=C(\c1ccc(O)cc1)c1ccc(OCCN2CCN(C(=O)N3CCN(c4ccc5c(c4)CN([C@@H]4CCC(=O)NC4=O)C5=O)CC3)CC2)cc1)c1ccccc1` [Compound 79, (R,Z)-3-(5-(4-(4-(2-(4-(1-(4-hydroxyphenyl)-2-phenylbut-1-en-1-yl)phenoxy)ethyl)piperazine-1-carbonyl)piperazin-1-yl)-1-oxoisoindolin-2-yl)piperidine-2,6-dione], on ERα, the 50% degradation concentration (DC50) is below 0.01 µM and the Dmax was above 90%. In addition, the IC50 on ER is below 0.01 µM. Moreover, the IC50 in assay [1] was below 0.01 µM.

As for `CC/C(=C(/c1ccc(O)cc1)c1ccc(OCCN2CCN(C(=O)N3CCN(c4ccc5c(c4)CN(C4CCC(=O)NC4=O)C5=O)CC3)CC2)cc1)c1ccccc1` (stereo not drawn) [Compound 80, (E)-3-(5-(4-(4-(2-(4-(1-(4-hydroxyphenyl)-2-phenylbut-1-en-1-yl)phenoxy)ethyl)piperazine-1-carbonyl)piperazin-1-yl)-1-oxoisoindolin-2-yl)piperidine-2,6-dione], the DC50 at ERα was below 0.01 µM. The maximal degradation (Dmax) on ERα is above 90%. Further, the IC50 (on ER; in assay [1]) was below 0.01 µM in each case.

The DC50 is the midpoint of the concentration-degradation curve. Higher therefore signals degradation only at high concentration. In general, Dmax refers to the largest share of the target that was removed.

For the origin of these results see patent US20220348595A1, “COMPOUNDS AND METHODS FOR THE TARGETED DEGRADATION OF ESTROGEN RECEPTORS” (Endotarget Inc., priority 2021, published 2022).
